One assay deals with CD4+ T cells. In words: T Cell Proliferation Assay: CD4+ T cell proliferation. The settings on record: Homo sapiens, high AMP condition (200 μM AMP, 5 μM EHNA), CD3/CD28 beads, 72 hours, read-out: CD4+ T cell proliferation EC50 (rescue of proliferation). It is filed as cell-based. The method, then: (§1) The purpose of this assay is to characterize the potency of inhibitors of CD73 in rescuing adenosine-mediated inhibition of T cell proliferation. CD4+ or CD8+ T cells were isolated from peripheral blood mononuclear cells (PBMCs, HemaCare) by immunomagnetic negative selection using EasySep™ Isolation Kit (STEMCELL Technologies) following the supplier's protocol. Pan T cells were pelleted by centrifugation at 300 gravitational force (g) for 5 minutes at room temperature and re-suspended in PBS. CellTrace™ Violet staining solution (Invitrogen) was added at 1:5,000 and incubated at 37° C. for 20 minutes, protected from light. Complete culture medium [RPMI-1640 (Gibco), 10% Fetal Bovine Serum (Gibco), 2 mM GlutaMAX (Gibco) and 1 mM Sodium Pyruvate (Gibco), 100 U/mL Penicillin-Streptomycin (Gibco) and MEM non-essential amino acids (NEAA) cell culture supplement (1:100, Gibco)] was then added, mixed, and incubated at 37° C. for 5 minutes. Cells were then pelleted by centrifugation at 300 g for 5 minutes at room temperature and re-suspended in fresh, pre-warmed complete culture medium. 50 μL of cells were seeded per well in 96 well u-bottom plates. 50 μL of CD3/CD28 beads-containing medium and 50 μL of media containing compounds were added into cells. 50 μL of media containing AMP and EHNA hydrochloride (Sigma-Aldrich) was added into cells at 200 μM and 5 μM final concentration, respectively. Cells were incubated for 72 hours at 37° C. in a 5% CO2 incubator. 200 μL of PBS was then added to each well and cells were centrifuged at 300 g, 4° C. for 10 minutes. The supernatant was discarded. 50 μL of Human TruStain FcX™ (Fc Receptor Blocking Solution, BioLegend) diluted 1:100 in PBS was added to each well, mixed gently and incubated for 20 minutes at 4° C. 50 μL of staining solution (BioLegend) was added to each well, mixed gently and incubated at 4° C. for 30 minutes. Cells were centrifuged at 300 g, 4° C. for 10 minutes and the supernatant was discarded. The cell pellets were washed with 250 μL of cell staining buffer and centrifuged at 300 g, 4° C. for 10 minutes. The supernatant was discarded and cells were re-suspended in 60 μL of cell staining buffer and analyzed on a flow cytometer.

A further assay concerns CD8+ T cells. Description: T Cell Proliferation Assay: CD8+ T cell proliferation. It is filed as cell-based. The conditions noted are these: high AMP condition (200 μM AMP, 5 μM EHNA), CD3/CD28 beads, 72 hours, read-out: CD8+ T cell proliferation EC50 (rescue of proliferation). The method, then:
as §1

Assay [1] concerns the target T1, CD73 (Homo sapiens, UniProt P21589).
T1 sequence (P21589 27-574): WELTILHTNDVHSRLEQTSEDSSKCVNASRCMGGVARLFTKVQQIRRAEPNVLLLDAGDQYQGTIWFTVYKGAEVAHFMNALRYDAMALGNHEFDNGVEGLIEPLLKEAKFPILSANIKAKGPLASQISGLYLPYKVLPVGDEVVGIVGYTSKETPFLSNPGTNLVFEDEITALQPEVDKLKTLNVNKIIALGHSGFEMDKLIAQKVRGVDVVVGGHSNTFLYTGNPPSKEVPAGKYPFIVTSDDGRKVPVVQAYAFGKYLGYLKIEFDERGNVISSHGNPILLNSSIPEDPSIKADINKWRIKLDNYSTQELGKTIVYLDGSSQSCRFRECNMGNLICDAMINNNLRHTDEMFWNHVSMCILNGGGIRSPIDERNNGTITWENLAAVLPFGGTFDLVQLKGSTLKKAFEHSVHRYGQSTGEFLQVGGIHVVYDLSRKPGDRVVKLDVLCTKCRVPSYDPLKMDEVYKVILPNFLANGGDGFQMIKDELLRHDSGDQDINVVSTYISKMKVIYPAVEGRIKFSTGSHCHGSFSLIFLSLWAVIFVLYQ
Description: Human CD73 Biochemical Assay. The settings on record: 0.05 nM recombinant CD73; AMP 5.56 μM final; 10 min at room temperature; LC/MS adenosine readout; read-out: Enzymatic IC50 against human CD73. The method in brief:
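Recombinant CD73 at 0.05 nM was preincubated with compound 15 min at room temperature in Tris pH 7.5 buffer with 1 mM NaH2PO4. Reaction ran 10 min with 5.56 μM AMP final and was stopped with TCA. Adenosine was quantified by LC-MS/MS MRM against a 13C5-adenosine internal standard using peak area ratios.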

The target of assay [2] is T1, CD73. Description: CD73 Cellular Assay. The arrangement: 40 μL of MDA-MB-231 cells (ATCC, HTB-26, breast cancer); host or cells: MDA-MB-231. The conditions noted are these: MDA-MB-231 cells; 200 μM AMP working solution; 45 min at 37° C.; malachite readout; read-out: Cellular IC50 against CD73. In kind it is cell-based. The method in brief: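 MDA-MB-231 cells (20,000 cells/mL) in HEPES pH 7.4 buffer preincubated 30 min with 1:3 compound dilutions, then AMP (200 μM working solution) added for 45 min at 37 °C, 5% CO2. Released phosphate in supernatant detected by malachite green absorbance at 620 nm; % inhibition normalised to neutral and inhibitor controls.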

Usually IC50 stands for the concentration needed to halve the response being measured.

For `COCCOc1cc([C@@H](Oc2nn(C)c3nnc(-c4c[nH]c(=O)[nH]c4=O)cc23)C(F)F)ccn1` [Example 28, 5-[3-[(1R)-2,2-difluoro-1-[2-(2-methoxyethoxy)-4-pyridyl]ethoxy]-1-methyl-pyrazolo[3,4-c]pyridazin-5-yl]-1H-pyrimidine-2,4-dione], the EC50 came to 0.33 nM with CD4+ T cells and 0.56 nM in the assay with CD8+ T cells. In addition, the results for the IC50 on CD73 [1] and on CD73 [2] were 0.05 nM and 0.63 nM, respectively.

With `Cn1nc(O[C@H](c2ccnc(COCC(F)(F)F)c2)C(F)F)c2cc(-c3c[nH]c(=O)[nH]c3=O)nnc21` [Example 34, 5-[3-[(1R)-2,2-difluoro-1-[2-(2,2,2-trifluoroethoxymethyl)-4-pyridyl]ethoxy]-1-methyl-pyrazolo[3,4-c]pyridazin-5-yl]-1H-pyrimidine-2,4-dione], the EC50 with CD4+ T cells turned out to be 0.1 nM; with CD8+ T cells it was 0.11 nM. The IC50 at CD73 [1] was 0.07 nM; at CD73 [2], 0.42 nM.

In the case of `Cn1nc(O[C@H](c2ccnc(C3CC(F)(F)C3)c2)C(F)F)c2cc(-c3c[nH]c(=O)[nH]c3=O)nnc21` [Example 38, 5-[3-[(1R)-1-[2-(3,3-difluorocyclobutyl)-4-pyridyl]-2,2-difluoro-ethoxy]-1-methyl-pyrazolo[3,4-c]pyridazin-5-yl]-1H-pyrimidine-2,4-dione], the EC50 in the assay on CD4+ T cells was 0.06 nM; in the assay with CD8+ T cells, 0.07 nM. For the same compound, the IC50 amounted to 0.06 nM on CD73 [1] and 0.36 nM on CD73 [2].

In the case of `Cn1nc(O[C@H](c2cc(OC3CC(F)(F)C3)ncn2)C(F)F)c2cc(-c3c[nH]c(=O)[nH]c3=O)nnc21` [Example 42A, 5-[3-[(1R)-1-[6-(3,3-difluorocyclobutoxy)pyrimidin-4-yl]-2,2-difluoro-ethoxy]-1-methyl-pyrazolo[3,4-c]pyridazin-5-yl]-1H-pyrimidine-2,4-dione], the EC50 in the assay with CD4+ T cells was determined as 0.22 nM; in the assay with CD8+ T cells, 0.18 nM. Moreover, the IC50 on CD73 [1] is 0.06 nM; at CD73 [2], 0.76 nM.

The values are drawn from patent publication US20260317332A1, “BICYCLIC HETEROCYCLE COMPOUNDS FOR THE TREATMENT OF CANCER” (Hoffmann-La Roche Inc., priority 2023, published 2026).
